Experimental data taken from PMC7265341, “Quantifying CDK inhibitor selectivity in live cells” (Nature Communications, 2020).
Like-named read-outs stand apart in the source and are kept apart here.

Legend:
CDK1/Cyclin E1 = CDK1/Cyclin E1 (Homo sapiens, UniProt P06493); test: NanoBRET live-cell target engagement, CDK1-NanoLuc/Cyclin E1 in HEK-293; type: binding; details: CDK1/E1, read-out: Inhibition at 10µM (%)
CDK2/Cyclin E1 = CDK2/Cyclin E1 (Homo sapiens, UniProt P24941); test: NanoBRET live-cell target engagement, CDK2-NanoLuc/Cyclin E1 in HEK-293; type: binding; details: CDK2/E1, read-out: Inhibition at 10µM (%)
CDK3/Cyclin E1 = CDK3/Cyclin E1 (Homo sapiens, UniProt Q00526); test: NanoBRET live-cell target engagement, CDK3-NanoLuc/Cyclin E1 in HEK-293; type: binding; details: read-out: Inhibition at 10µM (%), CDK3/E1
CDK4/Cyclin D1 = CDK4/Cyclin D1 (Homo sapiens, UniProt P11802); test: NanoBRET live-cell target engagement, NanoLuc-CDK4/Cyclin D1 in HEK-293; type: binding; details: CDK4/D1, read-out: Inhibition at 10µM (%)
CDK5/CDK5R1 = CDK5/CDK5R1 (Homo sapiens, UniProt Q00535); test: NanoBRET live-cell target engagement, CDK5-NanoLuc/CDK5R1 in HEK-293; type: binding; details: CDK5/CDK5R1, read-out: Inhibition at 10µM (%)
Chain of CDK5/CDK5R1 (Q00535 whole entry): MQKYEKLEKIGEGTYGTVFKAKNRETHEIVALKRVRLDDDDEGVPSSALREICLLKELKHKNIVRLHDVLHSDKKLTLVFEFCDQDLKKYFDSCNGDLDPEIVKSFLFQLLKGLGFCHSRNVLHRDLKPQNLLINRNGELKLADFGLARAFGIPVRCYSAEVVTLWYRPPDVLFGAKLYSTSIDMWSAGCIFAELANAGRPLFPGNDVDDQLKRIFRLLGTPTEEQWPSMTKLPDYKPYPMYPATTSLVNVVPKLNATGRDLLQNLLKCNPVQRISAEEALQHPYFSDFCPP
Chain of CDK5/CDK5R1 (Q15078 whole entry partner): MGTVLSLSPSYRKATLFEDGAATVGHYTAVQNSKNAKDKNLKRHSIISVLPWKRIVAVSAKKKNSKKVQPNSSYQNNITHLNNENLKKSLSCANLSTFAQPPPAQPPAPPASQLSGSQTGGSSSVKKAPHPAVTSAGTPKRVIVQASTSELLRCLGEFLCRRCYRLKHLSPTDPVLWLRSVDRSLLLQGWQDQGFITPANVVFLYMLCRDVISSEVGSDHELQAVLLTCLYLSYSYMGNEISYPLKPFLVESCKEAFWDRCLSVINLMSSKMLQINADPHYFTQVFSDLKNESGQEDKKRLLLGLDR

CDK7 = CDK7 (Homo sapiens, UniProt P50613); test: NanoBRET live-cell target engagement, NanoLuc-CDK7 in HEK-293; type: binding; details: CDK7, read-out: Inhibition at 10µM (%)
Chain of CDK7 (P50613 whole entry): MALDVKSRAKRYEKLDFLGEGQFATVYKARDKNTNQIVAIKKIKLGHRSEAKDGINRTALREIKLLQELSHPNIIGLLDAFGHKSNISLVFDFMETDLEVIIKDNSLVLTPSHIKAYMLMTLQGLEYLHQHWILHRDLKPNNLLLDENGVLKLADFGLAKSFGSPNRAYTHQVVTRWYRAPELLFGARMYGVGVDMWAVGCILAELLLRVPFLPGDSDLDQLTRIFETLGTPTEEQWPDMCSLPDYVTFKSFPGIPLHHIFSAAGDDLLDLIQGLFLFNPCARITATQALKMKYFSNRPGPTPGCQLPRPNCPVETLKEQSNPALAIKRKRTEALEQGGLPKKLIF

CDK8/Cyclin C = CDK8/Cyclin C (Homo sapiens, UniProt P49336); test: NanoBRET live-cell target engagement, NanoLuc-CDK8/Cyclin C in HEK-293; type: binding; details: for IC50: CDK8/C; for inhibition at 10 µM: read-out: Inhibition at 10µM (%), CDK8/C
CDK9/Cyclin K = CDK9/Cyclin K (Homo sapiens, UniProt P50750); test: NanoBRET live-cell target engagement, NanoLuc-CDK9/Cyclin K in HEK-293; type: binding; details: CDK9/K, read-out: Inhibition at 10µM (%)
CDK11A/Cyclin L2 = molecular target: T1, CDK11A/Cyclin L2 (Homo sapiens, UniProt Q9UQ88); test: NanoBRET live-cell target engagement, CDK11A-NanoLuc/Cyclin L2 in HEK-293; type: binding; details: CDK11a/L2, read-out: Inhibition at 10µM (%)
T1 sequence (Q9UQ88 1-783): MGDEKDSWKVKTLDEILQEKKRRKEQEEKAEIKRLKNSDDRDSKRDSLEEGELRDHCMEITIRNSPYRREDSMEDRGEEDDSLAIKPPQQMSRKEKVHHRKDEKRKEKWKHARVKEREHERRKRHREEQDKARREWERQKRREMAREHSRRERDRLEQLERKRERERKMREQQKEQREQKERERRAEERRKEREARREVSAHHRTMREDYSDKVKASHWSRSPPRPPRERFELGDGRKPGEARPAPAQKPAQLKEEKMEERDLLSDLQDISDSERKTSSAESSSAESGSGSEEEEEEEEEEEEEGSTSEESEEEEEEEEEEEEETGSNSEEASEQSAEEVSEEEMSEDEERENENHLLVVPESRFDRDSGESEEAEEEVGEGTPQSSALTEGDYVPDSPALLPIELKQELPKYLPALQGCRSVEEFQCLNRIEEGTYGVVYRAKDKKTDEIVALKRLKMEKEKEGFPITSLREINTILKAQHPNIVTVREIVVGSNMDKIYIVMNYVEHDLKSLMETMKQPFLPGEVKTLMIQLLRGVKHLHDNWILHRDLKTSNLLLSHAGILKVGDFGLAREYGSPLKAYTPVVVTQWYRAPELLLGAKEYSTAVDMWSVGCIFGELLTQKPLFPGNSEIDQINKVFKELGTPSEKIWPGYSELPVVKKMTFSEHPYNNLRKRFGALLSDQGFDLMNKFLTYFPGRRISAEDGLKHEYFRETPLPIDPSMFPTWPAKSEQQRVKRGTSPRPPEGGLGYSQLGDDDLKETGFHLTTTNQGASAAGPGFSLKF

CDK11B/Cyclin L2 = CDK11B/Cyclin L2 (Homo sapiens, UniProt P21127); test: NanoBRET live-cell target engagement, CDK11B-NanoLuc/Cyclin L2 in HEK-293; type: binding; details: CDK11b/L2, read-out: Inhibition at 10µM (%)
CDK12/Cyclin K = CDK12/Cyclin K (Homo sapiens, UniProt Q9NYV4); test: NanoBRET live-cell target engagement, CDK12-NanoLuc/Cyclin K in HEK-293; type: binding; details: CDK12/K, read-out: Inhibition at 10µM (%)
Chain of CDK12/Cyclin K (Q9NYV4 1-1481 isoform Q9NYV4-2): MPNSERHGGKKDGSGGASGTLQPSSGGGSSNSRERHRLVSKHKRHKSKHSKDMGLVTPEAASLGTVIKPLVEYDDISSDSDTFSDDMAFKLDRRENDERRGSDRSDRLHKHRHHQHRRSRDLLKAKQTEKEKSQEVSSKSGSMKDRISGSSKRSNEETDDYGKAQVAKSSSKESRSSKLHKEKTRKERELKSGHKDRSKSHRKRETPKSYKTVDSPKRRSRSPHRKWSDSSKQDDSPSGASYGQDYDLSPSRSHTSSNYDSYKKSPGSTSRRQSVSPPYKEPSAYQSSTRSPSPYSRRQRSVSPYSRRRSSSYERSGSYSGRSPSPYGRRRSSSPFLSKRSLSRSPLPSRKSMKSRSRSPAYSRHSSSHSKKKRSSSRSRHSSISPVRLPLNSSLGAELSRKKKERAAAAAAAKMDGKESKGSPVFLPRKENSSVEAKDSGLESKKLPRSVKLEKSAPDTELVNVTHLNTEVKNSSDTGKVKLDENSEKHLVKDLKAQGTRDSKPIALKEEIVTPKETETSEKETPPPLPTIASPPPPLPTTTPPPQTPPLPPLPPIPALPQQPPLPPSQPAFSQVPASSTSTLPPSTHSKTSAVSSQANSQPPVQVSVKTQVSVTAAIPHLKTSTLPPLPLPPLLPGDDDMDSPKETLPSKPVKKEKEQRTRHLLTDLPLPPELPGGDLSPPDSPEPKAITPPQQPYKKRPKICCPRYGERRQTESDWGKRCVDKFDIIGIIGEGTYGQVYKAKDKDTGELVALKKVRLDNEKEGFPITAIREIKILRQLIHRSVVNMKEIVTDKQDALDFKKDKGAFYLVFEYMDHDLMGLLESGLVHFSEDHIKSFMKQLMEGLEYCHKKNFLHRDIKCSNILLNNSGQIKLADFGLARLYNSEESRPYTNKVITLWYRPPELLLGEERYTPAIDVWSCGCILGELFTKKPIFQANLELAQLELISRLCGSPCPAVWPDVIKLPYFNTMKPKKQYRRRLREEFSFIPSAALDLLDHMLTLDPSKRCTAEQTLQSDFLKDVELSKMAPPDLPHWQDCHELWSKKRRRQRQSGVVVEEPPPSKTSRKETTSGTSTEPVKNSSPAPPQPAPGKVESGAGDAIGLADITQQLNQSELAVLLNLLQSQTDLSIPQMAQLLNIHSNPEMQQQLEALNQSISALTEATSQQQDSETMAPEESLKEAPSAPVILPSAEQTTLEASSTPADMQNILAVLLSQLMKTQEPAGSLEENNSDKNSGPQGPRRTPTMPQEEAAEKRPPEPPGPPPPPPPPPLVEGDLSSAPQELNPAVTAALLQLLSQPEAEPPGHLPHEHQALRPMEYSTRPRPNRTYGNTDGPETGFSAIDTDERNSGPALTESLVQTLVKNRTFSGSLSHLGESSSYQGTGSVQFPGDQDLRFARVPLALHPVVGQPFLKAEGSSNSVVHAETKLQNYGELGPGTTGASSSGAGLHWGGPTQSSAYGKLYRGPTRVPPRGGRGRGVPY
Chain of CDK12/Cyclin K (O75909 whole entry partner): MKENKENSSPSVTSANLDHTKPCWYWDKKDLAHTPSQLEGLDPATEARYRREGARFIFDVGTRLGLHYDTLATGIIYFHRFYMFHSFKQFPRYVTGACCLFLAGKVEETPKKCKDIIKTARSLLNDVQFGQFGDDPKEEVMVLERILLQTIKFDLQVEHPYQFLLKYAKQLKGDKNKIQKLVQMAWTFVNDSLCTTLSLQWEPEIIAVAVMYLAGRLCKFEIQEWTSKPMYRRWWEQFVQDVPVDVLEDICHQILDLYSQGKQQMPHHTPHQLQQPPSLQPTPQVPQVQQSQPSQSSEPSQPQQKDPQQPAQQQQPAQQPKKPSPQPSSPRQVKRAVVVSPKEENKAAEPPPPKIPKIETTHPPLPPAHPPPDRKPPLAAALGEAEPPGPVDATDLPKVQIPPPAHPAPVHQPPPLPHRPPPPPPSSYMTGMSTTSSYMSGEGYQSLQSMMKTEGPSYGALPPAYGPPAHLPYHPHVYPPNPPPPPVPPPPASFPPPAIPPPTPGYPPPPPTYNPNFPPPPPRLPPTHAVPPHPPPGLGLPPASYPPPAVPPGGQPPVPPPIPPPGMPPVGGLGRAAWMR

CDK13/Cyclin K = CDK13/Cyclin K (Homo sapiens, UniProt Q14004); test: NanoBRET live-cell target engagement, CDK13-NanoLuc/Cyclin K in HEK-293; type: binding; details: CDK13/K, read-out: Inhibition at 10µM (%)
CDK14/Cyclin Y = CDK14/Cyclin Y (Homo sapiens, UniProt O94921); test: NanoBRET live-cell target engagement, CDK14-NanoLuc/Cyclin Y in HEK-293; type: binding; details: CDK14/Y, read-out: Inhibition at 10µM (%)
CDK15/Cyclin Y = CDK15/Cyclin Y (Homo sapiens, UniProt Q96Q40); test: NanoBRET live-cell target engagement, NanoLuc-CDK15/Cyclin Y in HEK-293; type: binding; details: CDK15/Y, read-out: Inhibition at 10µM (%)
Chain of CDK15/Cyclin Y (Q96Q40 whole entry): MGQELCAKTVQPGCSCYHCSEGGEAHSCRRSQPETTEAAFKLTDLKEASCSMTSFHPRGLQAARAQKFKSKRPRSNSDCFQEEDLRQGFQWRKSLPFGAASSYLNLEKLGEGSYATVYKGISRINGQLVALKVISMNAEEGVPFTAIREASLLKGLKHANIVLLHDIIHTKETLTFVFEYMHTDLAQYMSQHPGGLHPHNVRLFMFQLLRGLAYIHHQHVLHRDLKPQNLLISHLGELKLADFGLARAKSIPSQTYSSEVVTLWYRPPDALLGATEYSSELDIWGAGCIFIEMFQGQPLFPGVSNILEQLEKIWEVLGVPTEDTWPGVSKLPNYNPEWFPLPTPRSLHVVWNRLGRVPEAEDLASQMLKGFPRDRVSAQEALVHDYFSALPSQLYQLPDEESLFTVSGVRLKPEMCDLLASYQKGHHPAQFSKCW
Chain of CDK15/Cyclin Y (Q8ND76 whole entry partner): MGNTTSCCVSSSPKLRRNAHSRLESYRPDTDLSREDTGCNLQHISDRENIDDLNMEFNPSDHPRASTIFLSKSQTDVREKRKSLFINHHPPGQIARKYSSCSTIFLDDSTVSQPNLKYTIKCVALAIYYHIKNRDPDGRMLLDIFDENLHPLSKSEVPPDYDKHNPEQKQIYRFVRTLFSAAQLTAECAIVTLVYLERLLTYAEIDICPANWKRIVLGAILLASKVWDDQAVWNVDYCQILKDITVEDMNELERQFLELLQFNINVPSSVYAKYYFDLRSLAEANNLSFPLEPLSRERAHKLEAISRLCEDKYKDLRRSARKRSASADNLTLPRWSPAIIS

CDK16/Cyclin Y = CDK16/Cyclin Y (Homo sapiens, UniProt Q00536); test: NanoBRET live-cell target engagement, CDK16-NanoLuc/Cyclin Y in HEK-293; type: binding; details: CDK16/Y, read-out: Inhibition at 10µM (%)
CDK17/Cyclin Y = CDK17/Cyclin Y (Homo sapiens, UniProt Q00537); test: NanoBRET live-cell target engagement, CDK17-NanoLuc/Cyclin Y in HEK-293; type: binding; details: CDK17/Y, read-out: Inhibition at 10µM (%)
CDK20/Cyclin H = CDK20/Cyclin H (Homo sapiens, UniProt Q8IZL9); test: NanoBRET live-cell target engagement, NanoLuc-CDK20/Cyclin H in HEK-293; type: binding; details: CDK20/H, read-out: Inhibition at 10µM (%)
CDK19/Cyclin C = CDK19/Cyclin C (Homo sapiens, UniProt Q9BWU1); test: NanoBRET live-cell target engagement, NanoLuc-CDK19/Cyclin C in HEK-293; details: for IC50: IC50 (nM), CDK19/C; for inhibition at 10 µM: read-out: Inhibition at 10µM (%), CDK19/C
Chain of CDK19/Cyclin C (Q9BWU1 whole entry): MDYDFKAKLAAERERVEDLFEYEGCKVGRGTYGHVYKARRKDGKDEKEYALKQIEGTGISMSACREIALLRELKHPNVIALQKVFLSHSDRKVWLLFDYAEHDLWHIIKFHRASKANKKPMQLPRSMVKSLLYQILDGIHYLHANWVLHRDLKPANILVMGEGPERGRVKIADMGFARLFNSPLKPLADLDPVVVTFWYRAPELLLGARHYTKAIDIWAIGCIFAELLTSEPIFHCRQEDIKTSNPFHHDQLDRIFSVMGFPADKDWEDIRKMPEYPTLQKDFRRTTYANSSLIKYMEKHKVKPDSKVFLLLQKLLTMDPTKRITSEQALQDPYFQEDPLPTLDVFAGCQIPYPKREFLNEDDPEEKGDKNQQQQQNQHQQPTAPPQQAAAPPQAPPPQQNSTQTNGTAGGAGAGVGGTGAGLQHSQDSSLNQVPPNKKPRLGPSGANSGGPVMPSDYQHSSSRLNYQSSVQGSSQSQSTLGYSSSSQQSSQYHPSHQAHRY
Chain of CDK19/Cyclin C (P24863 whole entry partner): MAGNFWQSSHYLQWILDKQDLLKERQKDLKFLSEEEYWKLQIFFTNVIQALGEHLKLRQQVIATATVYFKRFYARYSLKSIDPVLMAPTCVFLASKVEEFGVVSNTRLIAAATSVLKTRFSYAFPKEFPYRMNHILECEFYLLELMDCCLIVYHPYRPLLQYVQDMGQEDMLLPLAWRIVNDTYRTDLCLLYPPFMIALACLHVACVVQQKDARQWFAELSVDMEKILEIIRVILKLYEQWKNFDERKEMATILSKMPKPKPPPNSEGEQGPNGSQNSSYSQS

CDK10/Cyclin L2 = CDK10/Cyclin L2 (Homo sapiens, UniProt Q15131); test: NanoBRET live-cell target engagement, CDK10-NanoLuc/Cyclin L2 in HEK-293; details: read-out: Inhibition at 10µM (%), CDK10/L2
Chain of CDK10/Cyclin L2 (Q15131 whole entry): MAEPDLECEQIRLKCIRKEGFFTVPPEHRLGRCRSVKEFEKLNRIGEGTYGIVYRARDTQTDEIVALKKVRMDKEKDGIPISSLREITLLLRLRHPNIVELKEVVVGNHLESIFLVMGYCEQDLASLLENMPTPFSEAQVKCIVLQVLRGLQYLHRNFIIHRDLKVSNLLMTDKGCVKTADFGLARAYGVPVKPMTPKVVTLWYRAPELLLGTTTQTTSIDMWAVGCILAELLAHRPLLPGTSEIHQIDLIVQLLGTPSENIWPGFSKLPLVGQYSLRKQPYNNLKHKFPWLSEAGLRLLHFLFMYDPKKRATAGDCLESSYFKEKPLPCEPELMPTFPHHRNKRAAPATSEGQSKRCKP

With `Cn1cc(-c2ccc(-c3cncc(Cl)c3N3CCC4(CCNC4=O)CC3)cc2)cn1` [CCT251545] as the compound, how does the inhibition at 10 µM (CDK1/Cyclin E1; average) read?
Its inhibition at 10 µM is 15.4%.

And the inhibition at 10 µM (CDK1/Cyclin E1; experiment 1)?
Its inhibition at 10 µM is 21.3%.

And the inhibition at 10 µM (CDK1/Cyclin E1; experiment 2)?
The inhibition at 10 µM was 9.4%.

What about the inhibition at 10 µM (CDK2/Cyclin E1; average) of the same compound?
Its inhibition at 10 µM is -6.3%.

And the inhibition at 10 µM (CDK2/Cyclin E1; experiment 1)?
The inhibition at 10 µM was -6.4%.

What about the inhibition at 10 µM (CDK2/Cyclin E1; experiment 2) of the same compound?
Its inhibition at 10 µM is -6.1%.

What about the inhibition at 10 µM (CDK3/Cyclin E1; average) of the same compound?
The inhibition at 10 µM was -2.7%.

What about the inhibition at 10 µM (CDK3/Cyclin E1; experiment 1) of the same compound?
The inhibition at 10 µM was -4.5%.

And the inhibition at 10 µM (CDK3/Cyclin E1; experiment 2)?
Its inhibition at 10 µM is -1%.

What about the inhibition at 10 µM (CDK4/Cyclin D1; average) of the same compound?
Its inhibition at 10 µM is 6.9%.

And the inhibition at 10 µM (CDK4/Cyclin D1; experiment 1)?
The inhibition at 10 µM was -6.1%.

What about the inhibition at 10 µM (CDK4/Cyclin D1; experiment 2) of the same compound?
Its inhibition at 10 µM is 19.9%.

And the inhibition at 10 µM (CDK5/CDK5R1; average)?
Its inhibition at 10 µM is 16.2%.

And the inhibition at 10 µM (CDK5/CDK5R1; experiment 1)?
Its inhibition at 10 µM is 23.2%.

What about the inhibition at 10 µM (CDK5/CDK5R1; experiment 2) of the same compound?
The inhibition at 10 µM was 9.2%.

And the inhibition at 10 µM (CDK7; average)?
Its inhibition at 10 µM is -8.2%.

What about the inhibition at 10 µM (CDK7; experiment 1) of the same compound?
Its inhibition at 10 µM is -5.4%.

What about the inhibition at 10 µM (CDK7; experiment 2) of the same compound?
The inhibition at 10 µM was -11.1%.

What about the Kd (CDK8/Cyclin C) of the same compound?
Its Kd is at most 10 nM.

And the IC50 (CDK8/Cyclin C; IC50 (nM), experiment 1)?
Its IC50 is 2 nM.

What about the IC50 (CDK8/Cyclin C; IC50 (nM), experiment 2) of the same compound?
Its IC50 is 2 nM.

What about the IC50 (CDK8/Cyclin C; IC50 (nM), experiment 3) of the same compound?
The IC50 was 9 nM.

What about the IC50 (CDK8/Cyclin C; IC50 for CDK/cyclin complexes, live HEK-293, 2 h, mean ± S.E.M. (n=3) or mean (n=2)) of the same compound?
The IC50 was 6 nM.

What about the inhibition at 10 µM (CDK8/Cyclin C; average) of the same compound?
The inhibition at 10 µM was 97.8%.

And the inhibition at 10 µM (CDK8/Cyclin C; experiment 1)?
The inhibition at 10 µM was 98.8%.

What about the inhibition at 10 µM (CDK8/Cyclin C; experiment 2) of the same compound?
Its inhibition at 10 µM is 96.9%.

And the inhibition at 10 µM (CDK9/Cyclin K; average)?
The inhibition at 10 µM was 15.8%.

And the inhibition at 10 µM (CDK9/Cyclin K; experiment 1)?
The inhibition at 10 µM was 9.2%.

And the inhibition at 10 µM (CDK9/Cyclin K; experiment 2)?
Its inhibition at 10 µM is 22.5%.

And the inhibition at 10 µM (CDK11A/Cyclin L2; average)?
The inhibition at 10 µM was 4.8%.

And the inhibition at 10 µM (CDK11A/Cyclin L2; experiment 1)?
Its inhibition at 10 µM is -0.8%.

And the inhibition at 10 µM (CDK11A/Cyclin L2; experiment 2)?
The inhibition at 10 µM was 10.3%.

What about the inhibition at 10 µM (CDK11B/Cyclin L2; average) of the same compound?
Its inhibition at 10 µM is -1%.

And the inhibition at 10 µM (CDK11B/Cyclin L2; experiment 1)?
Its inhibition at 10 µM is -3.6%.

What about the inhibition at 10 µM (CDK11B/Cyclin L2; experiment 2) of the same compound?
The inhibition at 10 µM was 1.7%.

What about the inhibition at 10 µM (CDK12/Cyclin K; average) of the same compound?
Its inhibition at 10 µM is -2.2%.

What about the inhibition at 10 µM (CDK12/Cyclin K; experiment 1) of the same compound?
Its inhibition at 10 µM is 2.5%.

What about the inhibition at 10 µM (CDK12/Cyclin K; experiment 2) of the same compound?
Its inhibition at 10 µM is -6.8%.

What about the inhibition at 10 µM (CDK13/Cyclin K; average) of the same compound?
The inhibition at 10 µM was 7.2%.

What about the inhibition at 10 µM (CDK13/Cyclin K; experiment 1) of the same compound?
The inhibition at 10 µM was 7.3%.

What about the inhibition at 10 µM (CDK13/Cyclin K; experiment 2) of the same compound?
The inhibition at 10 µM was 7.1%.

And the inhibition at 10 µM (CDK14/Cyclin Y; average)?
The inhibition at 10 µM was -6%.

And the inhibition at 10 µM (CDK14/Cyclin Y; experiment 1)?
Its inhibition at 10 µM is -5.6%.

What about the inhibition at 10 µM (CDK14/Cyclin Y; experiment 2) of the same compound?
The inhibition at 10 µM was -6.4%.

And the inhibition at 10 µM (CDK15/Cyclin Y; average)?
The inhibition at 10 µM was 1.4%.

What about the inhibition at 10 µM (CDK15/Cyclin Y; experiment 1) of the same compound?
The inhibition at 10 µM was 2.4%.

And the inhibition at 10 µM (CDK15/Cyclin Y; experiment 2)?
Its inhibition at 10 µM is 0.46%.

What about the inhibition at 10 µM (CDK16/Cyclin Y; experiment 1) of the same compound?
Its inhibition at 10 µM is 1.8%.

And the inhibition at 10 µM (CDK16/Cyclin Y; experiment 2)?
Its inhibition at 10 µM is -12.1%.

And the inhibition at 10 µM (CDK17/Cyclin Y; average)?
The inhibition at 10 µM was 1.3%.

What about the inhibition at 10 µM (CDK17/Cyclin Y; experiment 1) of the same compound?
The inhibition at 10 µM was 5.9%.

And the inhibition at 10 µM (CDK17/Cyclin Y; experiment 2)?
The inhibition at 10 µM was -3.2%.

And the inhibition at 10 µM (CDK20/Cyclin H; experiment 1)?
The inhibition at 10 µM was 3.3%.

What about the inhibition at 10 µM (CDK20/Cyclin H; experiment 2) of the same compound?
The inhibition at 10 µM was 5.3%.

And the Kd (CDK19/Cyclin C)?
The Kd was at most 10 nM.

What about the IC50 (CDK19/Cyclin C; experiment 2) of the same compound?
Its IC50 is 1.5 nM.

And the IC50 (CDK19/Cyclin C; experiment 3)?
Its IC50 is 10 nM.

And the inhibition at 10 µM (CDK19/Cyclin C; average)?
Its inhibition at 10 µM is 94%.

What about the inhibition at 10 µM (CDK19/Cyclin C; experiment 1) of the same compound?
Its inhibition at 10 µM is 97.3%.

What about the inhibition at 10 µM (CDK19/Cyclin C; experiment 2) of the same compound?
Its inhibition at 10 µM is 90.6%.

And the inhibition at 10 µM (CDK10/Cyclin L2; average)?
Its inhibition at 10 µM is 6.5%.

What about the inhibition at 10 µM (CDK10/Cyclin L2; experiment 1) of the same compound?
The inhibition at 10 µM was -3.1%.

What about the inhibition at 10 µM (CDK10/Cyclin L2; experiment 2) of the same compound?
Its inhibition at 10 µM is 16.1%.
